Structure (SMILES) | melting point
CCN(CC)CCOc1ccc(NC(=O)C#Cc2ccc(C(F)(F)F)cc2Cl)cc1NS(C)(=O)=O [Example 4.23, 3-(2-chloro-4-trifluoromethylphenyl)propynoic acid-[4-(3-diethylaminoethoxy)-3-methanesulfonylaminophenyl]amide] | 57 to 60 °C
CCN(CC)CCOc1ccc(NC(=O)C#Cc2ccc(C(F)(F)F)cc2Cl)cc1F [Example 4.25, 3-(2-chloro-4-trifluoromethylphenyl)propynoic acid-[4-(3-diethylaminoethoxy)-3-fluorophenyl]amide] | 85 to 88 °C
COc1cc(NC(=O)C#Cc2ccc(C(F)(F)F)cc2Cl)ccc1OCCN1CCC(C)CC1 [Example 4.270, 3-(2-chloro-4-trifluoromethylphenyl)propynoic acid-{3-methoxy-4-[2-(4-methylpiperidin-1-yl)ethoxy]phenyl}amide] | 207 to 209 °C
COc1cc(NC(=O)C#Cc2ccc(C(F)(F)F)cc2Cl)ccc1OCCN1CC(C)CC(C)C1 (stereo not drawn) [Example 4.271, 3-(2-chloro-4-trifluoromethylphenyl)propynoic acid-{4-[2-(3,5-dimethylpiperidin-1-yl)ethoxy]-3-methoxyphenyl}amide] | 196 to 201 °C
COc1cc(NC(=O)C#Cc2ccc(C(F)(F)F)cc2Cl)ccc1OCCN1CCOCC1 [Example 4.273, 3-(2-chloro-4-trifluoromethylphenyl)propynoic acid-[3-methoxy-4-(2-morpholin-4-ylethoxy)phenyl]amide] | 209 to 211 °C
COc1cc(NC(=O)C#Cc2ccc(C(F)(F)F)cc2Cl)ccc1OCCN1CCC(OC)CC1 [Example 4.274, 3-(2-chloro-4-trifluoromethylphenyl)propynoic acid-{3-methoxy-4-[2-(4-methoxypiperidin-1-yl)ethoxy]phenyl}amide] | 195 to 197 °C
COc1cc(NC(=O)C#Cc2ccc(C(F)(F)F)cc2Cl)ccc1OCCN1CCC(C(N)=O)CC1 [Example 4.276, 1-(2-{4-[3-(2-chloro-4-trifluoromethylphenyl)propynoylamino]-2-methoxyphenoxy}ethyl)piperidine-4-carboxylic acid amide] | 150 °C
COc1cc(NC(=O)C#Cc2ccc(C(F)(F)F)cc2Cl)ccc1OCCN1C(C)CCCC1C (stereo not drawn) [Example 4.277, 3-(2-chloro-4-trifluoromethylphenyl)propynoic acid-{4-[2-(2,6-dimethylpiperidin-1-yl)ethoxy]-3-methoxyphenyl}amide] | 225 to 227 °C
CCN(CC)CCOc1ccc(NC(=O)C#Cc2cccnc2)cc1Cl [Example 4.285, 3-pyridin-3-ylpropynoic acid-[3-chloro-4-(2-diethylaminoethoxy)phenyl]amide] | 118 to 120 °C
CC1CCN(Cc2ccc(/C=C/C(=O)Nc3ccc(-c4ccc(Cl)cc4)cc3)cc2)CC1 [Example 5.2, (E)-N-(4′-chlorobiphenyl-4-yl)-3-[4-(4-methylpiperidin-1-ylmethyl)phenyl]acrylamide] | 207 to 208 °C
C[C@@H]1C[C@H](C)CN(Cc2ccc(/C=C/C(=O)Nc3ccc(-c4ccc(Cl)cc4)cc3)cc2)C1 [Example 5.3, (E)-N-(4′-chlorobiphenyl-4-yl)-3-[4-(cis-3,5-dimethylpiperidin-1-ylmethyl)phenyl]acrylamide] | 217 to 218 °C
COC1CCN(Cc2ccc(/C=C/C(=O)Nc3ccc(-c4ccc(Cl)cc4)cc3)cc2)CC1 [Example 5.4, (E)-N-(4′-chlorobiphenyl-4-yl)-3-[4-(4-methoxypiperidin-1-ylmethyl)phenyl]acrylamide] | 205 to 206 °C
NC(=O)C1CCN(Cc2ccc(/C=C/C(=O)Nc3ccc(-c4ccc(Cl)cc4)cc3)cc2)CC1 [Example 5.6, 1-{4-[(E)-2-(4′-chlorobiphenyl-4-ylcarbamoyl)vinyl]benzyl}piperidine-4-carboxylic acid amide] | 254 to 255 °C
CN(Cc1ccc(/C=C/C(=O)Nc2ccc(-c3ccc(Cl)cc3)cc2)cc1)C1CCOCC1 [Example 5.7, (E)-N-(4′-chlorobiphenyl-4-yl)-3-(4-{[methyl-(tetrahydropyran-4-yl)amino]methyl}phenyl)acrylamide] | 196 to 197 °C
O=C(/C=C/c1ccc(CN2CCC(CO)CC2)cc1)Nc1ccc(-c2ccc(Cl)cc2)cc1 [Example 5.8, (E)-N-(4′-chlorobiphenyl-4-yl)-3-[4-(4-hydroxymethylpiperidin-1-ylmethyl)phenyl]acrylamide] | 190 to 191 °C
O=C(/C=C/c1ccc(CN2CC[C@H](O)C2)cc1)Nc1ccc(-c2ccc(Cl)cc2)cc1 [Example 5.9, (E)-N-(4′-chlorobiphenyl-4-yl)-3-[4-((S)-3-hydroxypyrrolidin-1-ylmethyl)phenyl]acrylamide] | 178 to 179 °C
O=C(/C=C/c1ccc(CN2CCCC2)cc1)Nc1ccc(-c2ccc(Cl)cc2)cc1 [Example 5.13, (E)-N-(4′-chlorobiphenyl-4-yl)-3-(4-pyrrolidin-1-ylmethylphenyl)acrylamide] | 219 °C
COCCN(C)Cc1ccc(/C=C/C(=O)Nc2ccc(-c3ccc(Cl)cc3)cc2)cc1 [Example 5.14] | 222 to 223 °C
CN(Cc1ccc(/C=C/C(=O)Nc2ccc(-c3ccc(Cl)cc3)cc2)cc1)CC1CC1 [Example 5.17, (E)-N-(4′-chlorobiphenyl-4-yl)-3-{4-[(cyclopropylmethylmethylamino)methyl]phenyl}acrylamide] | 246 to 247 °C
O=C(/C=C/c1ccc(CNCC2CCCCC2)cc1)Nc1ccc(-c2ccc(Cl)cc2)cc1 [Example 5.21, (E)-N-(4′-chlorobiphenyl-4-yl)-3-{4-[(cyclohexylmethylamino)methyl]phenyl}acrylamide] | 262 to 263 °C
CC1CN(Cc2ccc(/C=C/C(=O)Nc3ccc(-c4ccc(Cl)cc4)cc3)cc2)CC(C)O1 (stereo not drawn) [Example 5.23, (E)-N-(4′-chlorobiphenyl-4-yl)-3-[4-(2,6-dimethylmorpholin-4-ylmethyl)phenyl]acrylamide] | 212 to 213 °C
O=C(/C=C/c1ccc(CN2CCC3(CCCC3)CC2)cc1)Nc1ccc(-c2ccc(Cl)cc2)cc1 [Example 5.25, (E)-3-[4-(8-azaspiro[4.5]dec-8-ylmethyl)phenyl]-N-(4′-chlorobiphenyl-4-yl)acrylamide] | 250 °C
COCCN(Cc1ccc(/C=C/C(=O)Nc2ccc(-c3ccc(Cl)cc3)cc2)cc1)CC(C)(C)O [Example 5.27, (E)-N-(4′-chlorobiphenyl-4-yl)-3-(4-{[(2-hydroxy-2-methylpropyl)-(2-methoxyethyl)amino]methyl}phenyl)acrylamide] | 125 to 126 °C

Continued, values first:

melting point | Structure (SMILES)
209 to 210 °C | O=C(/C=C/c1ccc(CN2CCC(N3CCCCC3)C2)cc1)Nc1ccc(-c2ccc(Cl)cc2)cc1 (stereo not drawn) [Example 5.28, (E)-N-(4′-chlorobiphenyl-4-yl)-3-[4-(3-piperidin-1-ylpyrrolidin-1-ylmethyl)phenyl]acrylamide]
227 to 258 °C | CC1CCC(N(C)Cc2ccc(/C=C/C(=O)Nc3ccc(-c4ccc(Cl)cc4)cc3)cc2)CC1 (stereo not drawn) [Example 5.29, (E)-N-(4′-chlorobiphenyl-4-yl)-3-(4-{[methyl-(4-methylcyclohexyl)amino]methyl}phenyl)acrylamide]
247 to 248 °C | O=C(/C=C/c1ccc(CNC2CCCCC2)cc1)Nc1ccc(-c2ccc(Cl)cc2)cc1 [Example 5.33, (E)-N-(4′-chlorobiphenyl-4-yl)-3-(4-cyclohexylaminomethylphenyl)acrylamide]
168 to 169 °C | CN(Cc1ccc(/C=C/C(=O)Nc2ccc(-c3ccc(Cl)cc3)cc2)cc1)C1CCN(C(=O)OC(C)(C)C)CC1 [Example 5.35, tert-butyl 4-({-[(E)-2-(4′-chlorobiphenyl-4-ylcarbamoyl)vinyl]benzyl}methylamino)piperidine-1-carboxylate]
178 to 179 °C | O=C(/C=C/c1ccc(CN(CCO)C2CCCCC2)cc1)Nc1ccc(-c2ccc(Cl)cc2)cc1 [Example 5.38, (E)-N-(4′-chlorobiphenyl-4-yl)-3-(4-{[cyclohexyl-(2-hydroxyethyl)amino]methyl}phenyl)acrylamide]
185 to 188 °C | COc1ccc(-c2ccc(NC(=O)CCc3ccc(CN4CCCC4)cc3)cc2)cc1 [Example 6.1, N-(4′-methoxybiphenyl-4-yl)-3-(4-pyrrolidin-1-ylmethylphenyl)propionamide]
150 to 151 °C | CC1CCN(Cc2ccc(CCC(=O)Nc3ccc(-c4ccc(Cl)cc4)cc3)cc2)CC1 [Example 6.2, N-(4′-chlorobiphenyl-4-yl)-3-[4-(4-methylpiperidin-1-ylmethyl)phenyl]propionamide]
143 to 144 °C | COC1CCN(Cc2ccc(CCC(=O)Nc3ccc(-c4ccc(Cl)cc4)cc3)cc2)CC1 [Example 6.3, N-(4′-chlorobiphenyl-4-yl)-3-[4-(4-methoxypiperidin-1-ylmethyl)phenyl]propionamide]
193 to 194 °C | O=C(CCc1ccc(CN2CCOCC2)cc1)Nc1ccc(-c2ccc(Cl)cc2)cc1 [Example 6.4, N-(4′-chlorobiphenyl-4-yl)-3-(4-morpholin-4-ylmethylphenyl)propionamide]
240 to 241 °C | NC(=O)C1CCN(Cc2ccc(CCC(=O)Nc3ccc(-c4ccc(Cl)cc4)cc3)cc2)CC1 [Example 6.5, 1-{4-[2-(4′-chlorobiphenyl-4-ylcarbamoyl)ethyl]benzyl}piperidine-4-carboxylic acid amide]
185 to 186 °C | O=C(CCc1ccc(CN2CCC(CO)CC2)cc1)Nc1ccc(-c2ccc(Cl)cc2)cc1 [Example 6.6, N-(4′-chlorobiphenyl-4-yl)-3-[4-(4-hydroxymethylpiperidin-1-ylmethyl)phenyl]propionamide]
171 to 172 °C | O=C(CCc1ccc(CN2CC[C@H](O)C2)cc1)Nc1ccc(-c2ccc(Cl)cc2)cc1 [Example 6.7, N-(4′-chlorobiphenyl-4-yl)-3-[4-((S)-3-hydroxypyrrolidin-1-ylmethyl)phenyl]propionamide]
156 to 157 °C | O=C(CCc1ccc(CN2CCC[C@@H]2CO)cc1)Nc1ccc(-c2ccc(Cl)cc2)cc1 [Example 6.8, N-(4′-chlorobiphenyl-4-yl)-3-[4-((R)-2-hydroxymethylpyrrolidin-1-ylmethyl)phenyl]propionamide]
